# Laboratory results reported in patent US9499553B2 (CHUGAI SEIYAKU KABUSHIKI KAISHA, priority 2013, dated 2016).
# pIC50: −log10 of the molar value.
# Experiments:
# human PiT-1 = molecular target: T1, human PiT-1 (Homo sapiens, UniProt Q8WUM9); experiment: Inhibitory effect on 33PO4 uptake into human PiT-1-expressing CHO cells; format: cell-based; conditions: compound 0.24, 1.2, 6 or 30 μM, pH 6.5, read-out: IC50 against 33PO4 uptake into human PiT-1-expressing cells
# T1 construct: expressed in transfected cells; host or cells: CHO cells
# T1 sequence (Q8WUM9 1-679): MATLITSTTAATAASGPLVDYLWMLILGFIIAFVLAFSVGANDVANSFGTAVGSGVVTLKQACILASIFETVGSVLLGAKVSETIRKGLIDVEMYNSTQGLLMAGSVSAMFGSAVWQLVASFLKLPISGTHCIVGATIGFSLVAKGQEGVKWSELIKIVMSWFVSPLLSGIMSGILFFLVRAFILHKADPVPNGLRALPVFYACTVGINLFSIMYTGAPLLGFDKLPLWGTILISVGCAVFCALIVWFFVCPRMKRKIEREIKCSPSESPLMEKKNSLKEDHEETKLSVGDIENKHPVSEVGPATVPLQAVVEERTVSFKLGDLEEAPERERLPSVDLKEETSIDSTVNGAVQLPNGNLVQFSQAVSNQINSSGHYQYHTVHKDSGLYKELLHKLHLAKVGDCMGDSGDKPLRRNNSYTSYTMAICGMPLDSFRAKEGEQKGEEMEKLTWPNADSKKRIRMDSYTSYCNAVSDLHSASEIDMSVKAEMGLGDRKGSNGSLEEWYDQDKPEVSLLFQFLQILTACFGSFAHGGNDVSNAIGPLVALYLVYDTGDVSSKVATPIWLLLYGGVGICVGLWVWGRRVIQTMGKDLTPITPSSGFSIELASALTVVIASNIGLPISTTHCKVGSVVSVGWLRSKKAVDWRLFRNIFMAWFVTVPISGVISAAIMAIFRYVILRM
# Method: Test Example 3: Inhibitory Effect on ^33PO4 Uptake into Human PiT-1-Expressing Cell
# CHO cells were transfected with human PiT-1 expression plasmids or empty vectors to prepare human PiT-1-expressing cells and empty vector-expressing cells. The human PiT-1-expressing cells or the empty vector-expressing cells were inoculated to a 96-well plate and incubated overnight in a CO2 incubator. […] After a given time, a 1/20 volume of buffer A containing ^33PO4 was added thereto and reacted at room temperature. After washing with ice-cold buffer A, a liquid scintillator was added to each reaction mixture, and the amount of ^33PO4 uptake was measured using TopCount. The rate of inhibition was determined according to the following expression: Rate (%) of inhibition=(1−(Amount of ^33PO4 uptake in the compound-supplemented well containing the human PiT-1-expressing cells−Amount of ^33PO4 uptake in the compound-supplemented well containing the empty vector-expressing cells)/(Amount of ^33PO4 uptake in the DMSO-supplemented well containing the human PiT-1-expressing cells −Amount of ^33PO4 uptake in the DMSO-supplemented well containing the empty vector-expressing cells))×100
# human NaPi-IIb = molecular target: T2, human NaPi-IIb (Homo sapiens, UniProt O95436); experiment: Inhibitory effect on 33PO4 uptake into human NaPi-IIb-expressing CHO cells; format: cell-based; conditions: read-out: IC50
# T2 construct: expressed in transfected cells
# T2 sequence (O95436 1-690): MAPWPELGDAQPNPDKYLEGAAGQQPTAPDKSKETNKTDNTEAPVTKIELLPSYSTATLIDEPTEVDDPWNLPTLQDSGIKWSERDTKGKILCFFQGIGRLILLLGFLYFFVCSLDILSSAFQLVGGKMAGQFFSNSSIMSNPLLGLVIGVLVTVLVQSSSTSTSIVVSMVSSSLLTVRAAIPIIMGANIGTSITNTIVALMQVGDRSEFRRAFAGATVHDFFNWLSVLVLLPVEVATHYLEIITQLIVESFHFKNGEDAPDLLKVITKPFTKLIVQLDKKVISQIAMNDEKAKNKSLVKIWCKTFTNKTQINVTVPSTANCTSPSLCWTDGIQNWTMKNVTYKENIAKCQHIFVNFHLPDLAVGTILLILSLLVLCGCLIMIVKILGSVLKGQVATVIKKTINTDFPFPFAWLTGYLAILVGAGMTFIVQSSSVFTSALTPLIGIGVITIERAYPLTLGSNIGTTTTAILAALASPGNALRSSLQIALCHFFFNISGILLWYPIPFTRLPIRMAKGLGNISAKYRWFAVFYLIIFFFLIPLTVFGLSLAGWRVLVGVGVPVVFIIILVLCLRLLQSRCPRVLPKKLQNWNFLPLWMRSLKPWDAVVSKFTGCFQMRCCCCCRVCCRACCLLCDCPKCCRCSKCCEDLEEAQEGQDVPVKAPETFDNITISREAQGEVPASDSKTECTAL
# Summary of the method: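 Stable human NaPi-IIb CHO line (G418-selected), plated and cultured overnight; ³³PO4 added in buffer A and uptake run at room temperature. Cells washed with ice-cold buffer A, then uptake counted by liquid scintillation.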
smiles,measurement,setting,value
"COCCN(C)CCOc1ccc(CN2C(=O)C(C(=O)Nc3ccc(C(F)(F)F)cc3-c3cc(C(F)(F)F)ncn3)=C(O)C3(CCCC3)N2C)c(F)c1F [Example 14, 7-[[2,3-Difluoro-4-[2-[2-methoxyethyl(methyl)amino]ethoxy]phenyl]methyl]-10-hydroxy-6-methyl-8-oxo-N-[4-(trifluoromethyl)-2-[6-(trifluoromethyl)pyrimidin-4-yl]phenyl]-6,7-diazaspiro[4.5]dec-9-ene-9-carboxamide]",pIC50,human PiT-1,5.66
same,pIC50,human NaPi-IIb,5.05
